Like-named read-outs stand apart in the source and are kept apart here.

One experiment deals with T1, AP-1 (Homo sapiens, UniProt P01100+P05412).
T1 construct: (Histidine)6; Strep-tag; made in house; host or cells: bacterial cells harboring pFos-Jun
The experiment in a line: AP-1 inhibition assay (ELISA), AP-1 binding to AP-1 recognition sequence. As to the method:
To test the effect of the compounds of the present disclosure on AP-1 binding activity to AP-1 recognition sequence, ELISA experiments were performed.
According to implementations, binding assays were developed to identify inhibitors that block the AP-1 DNA binding activities. Traditional methods call for the preparation of nuclear extracts from TPA-stimulated cells, or require separate purification of Fos and Jun followed with in vitro dimerization to form a functional AP-1 complexes. A bicistronic expression vector that can drive the expression of two genes in one plasmid was thus designed as shown in FIG. 7. In this system, a promoter would directly drive the expression of the first gene, which is connected to the second gene via a ribosome-binding site in order to confer the expression of the second genes. Any pair of genes that form heterodimer in the cells for their physiological functions can be potentially expressed as complexes in the cells using this system.
According to implementations, the expression system of FIG. 7 was used to co-express AP-1 complexes. Accordingly, Fos (as gene 1) was tagged with a (Histidine)6 tag and Jun (as Gene 2) was tagged with Strep-tag as illustrated in FIG. 8A. […] Cross-linking experiments further confirmed the Fos-Jun complexes are dimers (FIG. 8C).
The crude extracts containing or the purified proteins were used for ELISA-based and fluorescence anisotropy-based binding analysis. Labeled oligonucleotides containing one or more copies of AP-1 consensus binding sites were used in the binding assays. Biotin-labeled oligonucleotides were used to coat streptavidin-plates in ELISA-binding assays. Rhodamine or fluorescein or other fluorophores-labeled oligonucleotides were used for fluorescence anisotropy analysis.
For orientation: An ELISA detects its analyte on a solid surface through an enzyme-linked reagent.

Experiment [1] has as its system AP-1 transcription factors. As to the kind of experiment: ELISA-based AP-1/DNA binding assay with nuclear extracts from TPA-activated HeLa or K562 cells. The conditions noted are these: fractions of PA crude extract from preparative C18 HPLC; FIG. 4. As to the method:
According to implementations of experimental data shown in FIG. 5, oligonucleotide containing AP-1 binding sites were incubated nuclear extracts from TPA-stimulated K562 (K562) or HeLa (HeLa) cells. The antibodies to AP-1 complexes were added followed with horseradish peroxidase-labeled secondary antibody for ELISA-based analysis. AP-1 binding activity in the nuclear extract from TPA-stimulated cells was defined as 100% and the AP-1 binding activity of buffer only was defined as 0%.
According to implementations of experimental data shown in FIG. 6, AP-1 complexes can be formed by different proteins such as C-Jun, JunB, JunD, c-Fos, Fos-B, Fra-1 or Fra-2.
Due to the involvement of AP-1 activity in inflammatory signaling, the effects of the PA crude extract on AP-1/DNA binding activity was examined. […] The nuclear extract prepared from TPA-activated HeLa or K562 cells were used as AP-1 protein sources. After incubating with the oligonucleotides containing AP-1 binding sites, the AP-1/DNA complexes were detected with HRP-conjugated anti-c-Fos antibodies.
The PA crude extract was further fractionated with preparative HPLC using C18 column. […] This fraction was further purified by employing another C18 column using the solvent gradient from 2% acetonitrile to 90% acetonitrile containing 0.1% trifluoreoacetic acid. […]

Experiment [2] has as its system Human umbilical vein endothelial (HUVEC) cells. The experiment in a line: LPS-induced cytokine/chemokine expression in HUVEC cells (Luminex). It is filed as cell-based. The arrangement: unit not given here. Particulars: HUVEC cells incubated with LPS, PA crude extract 1 mg/ml. How it is done:
Human umbilical vein endothelial (HUVEC) cells were incubated with LPS in the absence or presence of 1 mg/ml crude extract of PA. The cytokine expression profile was determined using Luminex.

Where [3] appears, read: ELISA, AP-1 binding activity to AP-1 recognition sequence, read-out: IC50 (AP-1 inhibition assay).

T1 sequence (P01100 whole entry): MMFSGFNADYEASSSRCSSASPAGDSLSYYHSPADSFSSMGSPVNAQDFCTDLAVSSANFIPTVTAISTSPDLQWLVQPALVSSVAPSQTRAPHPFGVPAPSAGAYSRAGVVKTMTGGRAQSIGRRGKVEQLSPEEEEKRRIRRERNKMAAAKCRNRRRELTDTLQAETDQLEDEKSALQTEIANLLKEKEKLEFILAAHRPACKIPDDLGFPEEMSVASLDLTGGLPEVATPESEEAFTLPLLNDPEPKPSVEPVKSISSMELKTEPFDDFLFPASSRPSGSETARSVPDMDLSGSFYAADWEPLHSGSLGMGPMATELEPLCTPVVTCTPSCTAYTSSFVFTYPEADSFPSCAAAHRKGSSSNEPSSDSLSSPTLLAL
T1 sequence (P05412 whole entry): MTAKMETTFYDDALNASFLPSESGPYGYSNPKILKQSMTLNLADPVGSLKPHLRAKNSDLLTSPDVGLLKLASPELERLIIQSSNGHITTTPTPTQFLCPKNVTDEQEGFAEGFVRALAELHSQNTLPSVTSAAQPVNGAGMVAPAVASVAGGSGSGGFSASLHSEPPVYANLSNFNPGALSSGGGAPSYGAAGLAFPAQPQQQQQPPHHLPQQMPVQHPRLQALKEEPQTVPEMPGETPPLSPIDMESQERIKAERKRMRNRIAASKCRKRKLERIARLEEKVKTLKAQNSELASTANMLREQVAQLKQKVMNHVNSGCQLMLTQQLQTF

Take `O=C(O)/C(=C\c1ccc(O)c(O)c1)C(c1ccc(O)c(O)c1)C(O)C(=O)O` (single isomer, unassigned) [Mena 987 (1)]: on AP-1 (setting [3]), the concentration for half-maximal inhibition (IC50) was found to be 4.3 ± 2.6 µM.

For the compound `O=C(/C=C/c1ccc(O)c(O)c1)NC[C@@H](O)C(=O)Oc1cccc(O)c1O` [CHM9102], the “Inhibitory effects against AP-1 binding of HPLC fractions and isolated components (in words)” value in experiment [1] is “inhibitory effects”.

In the case of `COC(=O)C(Cc1ccc(O)c(O)c1)NC(=O)/C=C/c1ccc(O)c(O)c1` (stereo not drawn) [Compound 5], on AP-1 (setting [3]), the concentration for half-maximal inhibition (IC50) was determined as 39 ± 31 µM.

Turning to `CCOC(=O)[C@H](Cc1ccc(O)c(O)c1)NC(=O)/C=C/c1ccc(O)c(O)c1` [Compound 6], the IC50 at AP-1 (setting [3]) was determined as 32.5 ± 24 µM.

In the case of `O=C(/C=C/c1ccc(O)c(O)c1)N[C@@H](Cc1ccc(O)c(O)c1)C(=O)O` [Compound 7], the IC50 on AP-1 (setting [3]) was 9.2 ± 3.2 µM.

In the case of `O=C(/C=C/c1ccc(O)c(O)c1)NCCc1ccc(O)c(O)c1` [Compound 8], at AP-1 (setting [3]), the IC50 amounted to 12.9 ± 5.9 µM.

In turn, `CCOP(=O)(OCC)C(Cc1ccc(O)c(O)c1)NC(=O)/C=C/c1ccc(O)c(O)c1` (stereo not drawn) [Compound 9] displayed an IC50 on AP-1 of 26.2 ± 18.9 µM.

For `CCOC(=O)C(Cc1ccc(O)c(O)c1)OC(=O)/C=C/c1ccc(O)c(O)c1` (stereo not drawn) [Compound 10], the IC50 at AP-1 (setting [3]) worked out at 5.6 ± 4.2 µM.

Regarding `O=C(/C=C/c1cc(O)c(O)cc1[N+](=O)[O-])OC(Cc1cc(O)c(O)cc1[N+](=O)[O-])C(=O)O` (stereo not drawn) [Compound 11], on AP-1 (setting [3]), the IC50 amounted to 21.3 ± 24 µM.

Turning to `COC(=O)C(Cc1ccc(O)c(O)c1)NC(=O)[C@H](Cc1ccc(O)c(O)c1)OC(=O)/C=C/c1ccc(O)c(O)c1` (stereo partly drawn) [Compound 13], the concentration for half-maximal inhibition (IC50) on AP-1 (setting [3]) stood at 0.8 ± 0.8 µM.

In the case of `CCOC(=O)C(Cc1ccc(O)c(O)c1)NC(=O)[C@H](Cc1ccc(O)c(O)c1)OC(=O)/C=C/c1ccc(O)c(O)c1` (stereo partly drawn) [Compound 14], the IC50 at AP-1 (setting [3]) worked out at 1.2 ± 0.8 µM.

As for `O=C(O)CC(NC(=O)C(Cc1ccc(O)c(O)c1)OC(=O)C=Cc1ccc(O)c(O)c1)C(=O)O` (stereo not drawn) [Compound 15], the IC50 on AP-1 (setting [3]) worked out at 34.7 ± 21.3 µM.

Turning to `COC(=O)C(Cc1ccc(O)c(O)c1)NC(=O)C(Cc1cc(O)c(O)cc1[N+](=O)[O-])OC(=O)C=Cc1ccc(O)c(O)c1` (stereo not drawn) [Compound 16], on AP-1 (setting [3]), the IC50 stood at 21.3 ± 24 µM.

Take `COC(=O)C(Cc1c[nH]c2ccccc12)NC(=O)C(Cc1ccc(O)c(O)c1)OC(=O)C=Cc1ccc(O)c(O)c1` (stereo not drawn) [Compound 17]: the IC50 at AP-1 (setting [3]) was determined as 43.4 ± 28.2 µM.

Turning to `O=C(C=Cc1ccc(O)c(O)c1)OC(Cc1ccc(O)c(O)c1)C(=O)NC(Cc1c[nH]c2ccccc12)C(=O)O` (stereo not drawn) [Compound 18], at AP-1 (setting [3]), the IC50 was 31.9 ± 20 µM.

For the compound `COC(=O)C(Cc1ccc(O)c(O)c1)NC(=O)C(Cc1ccc(O)c(O)c1)NC(=O)C=Cc1ccc(O)c(O)c1` (stereo not drawn) [Compound 19], on AP-1 (setting [3]), the half-maximal inhibitory concentration (IC50) amounted to 8 ± 4.7 µM.

Take `O=C(C=Cc1ccc(O)c(O)c1)NC(Cc1ccc(O)c(O)c1)C(=O)NC(Cc1ccc(O)c(O)c1)C(=O)O` (stereo not drawn) [Compound 20]: at AP-1 (setting [3]), the IC50 came to 3.5 ± 2 µM.

`COc1ccc2c(c1)c(CC(=O)O)c(C)n2C(=O)c1ccc(Cl)cc1` [Indomethacin]: in experiment [2], the Eotaxin expression is 29.1, the GM-CSF expression amounted to 220, the IFNg expression came to 2.41 and the IL-1a expression was 13.8. In experiment [2], this compound came in with an IL-1b expression of 11.7, an IL-2 expression of 10.1, an IL-3 expression of 8.82 and an IL-4 expression of 11.8. In experiment [2], the IL-5 expression came to 1.24, the IL-6 expression is 62300, the IL-7 expression came out at 51.5 and the IL-8 expression is reported as 8030. Moreover, in experiment [2], the IL-10 expression is recorded as 1.12, the “IL-12 (p40) expression” value came out at 16.4, the “IL-12 (p70) expression” value is listed as 6.43 and the IL-13 expression worked out at 11.1. In experiment [2], the IL-15 expression was determined as 13.4, the IP-10 expression stood at 24.5, the MCP-1 expression was 41800 and the MIP-la expression was found to be 7.57. Also, in experiment [2], the RANTES expression was 5.48 and the TNFa expression stood at 8.14.

`O=C(OC(Cc1ccc(O)c(O)c1)C(=O)O)C1=Cc2ccc(O)c(O)c2C(C(=O)OC(Cc2ccc(O)c(O)c2)C(=O)O)C1c1ccc(O)c(O)c1` (stereo not drawn) [Mena 9102 (3)]: the half-inhibitory concentration (IC50) at AP-1 (setting [3]) came out at 1.4 ± 0.9 µM.

Regarding `O=C(/C=C/c1ccc(O)c(O)c1)O[C@H](Cc1ccc(O)c(O)c1)C(=O)O` [rosmarinic acid (4), rosmarinic acid], in experiment [1], the “Inhibitory effects against AP-1 binding of HPLC fractions and isolated components (in words)” value was “inhibitory effects”. Also, the half-maximal inhibitory concentration (IC50) on AP-1 (setting [3]) turned out to be 10 ± 4.1 µM.

A word on the IC50: it is the midpoint of a concentration-inhibition curve.

(Values after US8105636B2, “Compositions and methods for treating inflammation and inflammation-related disorders by Plectranthus amboinicus extracts” (Academia Sinica, priority 2007, dated 2012).)
